From patent US20110039762A1, “TARGETED ANTIMICROBIAL MOIETIES” (C3 JIAN, INC., priority 2009, published 2011)
Entries after “also recorded” stand apart in the source; their conditions may differ.

What follows are substances tested on microorganisms (e.g., bacteria, yeasts, fungi) (assay: Targeting peptide binding to target microorganisms (Table 3)). Conditions: microorganism the targeting peptide binds; binding in aqueous buffers varied by peptide solubility, preferably 1x PBS.

| Substance | Target(s) |
| --- | --- |
| 1T-100 (LDPLEPRIAPPGDRSHQGAPACHRDPLRGRSARDAER; Peptide with targeting and/or antimicrobial activity) [Peptide 1T-100] | S. gordonii; also recorded: S. mitis; also recorded: S. mutans |
| 1T-101 (RLRVGRATDLPLTSFAVGVVRNLPDAPAH; Peptide with targeting and/or antimicrobial activity) [Peptide 1T-101] | A. naeslundii; also recorded: P. gingivalis; also recorded: S. epidermidis; also recorded: S. gordonii; also recorded: S. mitis; also recorded: S. mutans; also recorded: S. oralis; also recorded: S. sanguinis |
| 1T-104 (RAVAAHLQGRHHGHQVRRQRHGQR; Peptide with targeting and/or antimicrobial activity) [Peptide 1T-104] | S. mitis |
| 1T-105 (GEGLPPPVLHLPPPRMSGR; Peptide with targeting and/or antimicrobial activity) [Peptide 1T-105] | S. epidermidis; also recorded: S. gordonii; also recorded: S. mitis; also recorded: S. mutans; also recorded: S. oralis |
| 1T-106 (DALRRSRSQGRRHR; Peptide with targeting and/or antimicrobial activity) [Peptide 1T-106] | S. gordonii; also recorded: S. mitis; also recorded: S. mutans; also recorded: S. oralis; also recorded: S. salivarious |
| 1T-107 (SPVPRFTAVGGVSRGSP; Peptide with targeting and/or antimicrobial activity) [Peptide 1T-107] | A. naeslundii; also recorded: S. epidermidis; also recorded: S. gordonii; also recorded: S. mitis; also recorded: S. mutans; also recorded: S. oralis; also recorded: S. salivarious; also recorded: S. sanguinis |
| 1T-108 (WGPLGPERPLW; Peptide with targeting and/or antimicrobial activity) [Peptide 1T-108] | S. gordonii; also recorded: S. mitis; also recorded: S. mutans; also recorded: S. oralis; also recorded: S. salivarious; also recorded: S. sanguinis |
| 1T-109 (VTTNVRQGAGS; Peptide with targeting and/or antimicrobial activity) [Peptide 1T-109] | A. naeslundii; also recorded: S. epidermidis; also recorded: S. gordonii; also recorded: S. mitis; also recorded: S. mutans; also recorded: S. oralis; also recorded: S. salivarious; also recorded: S. sanguinis |
| 1T-110 (LAAKTAVCVGRAFM; Peptide with targeting and/or antimicrobial activity) [Peptide 1T-110] | A. naeslundii; also recorded: P. gingivalis; also recorded: S. epidermidis; also recorded: S. gordonii; also recorded: S. mitis; also recorded: S. mutans; also recorded: S. oralis; also recorded: S. sanguinis |
| 1T-112 (SDNDGKLILGTSQ; Peptide with targeting and/or antimicrobial activity) [Peptide 1T-112] | S. gordonii |
| 1T-113 (HGAHQRTGQRLHHHRGRTVSGCRQNPVAGVDPDEHR; Peptide with targeting and/or antimicrobial activity) [Peptide 1T-113] | S. mitis |
| 1T-114 (RQAPGPGLVTITAACSAPGSRSR; Peptide with targeting and/or antimicrobial activity) [Peptide 1T-114] | A. naeslundii; also recorded: P. gingivalis; also recorded: S. epidermidis; also recorded: S. gordonii; also recorded: S. mitis; also recorded: S. mutans; also recorded: S. oralis; also recorded: S. sanguinis |
| 1T-117 (GPGVVGPAPFSRLPAHALNL; Peptide with targeting and/or antimicrobial activity) [Peptide 1T-117] | S. mutans |
| 1T-119 (SPATQKAPTRAQPSRAPVQDCGDGRPTAAPDDVERLSPR; Peptide with targeting and/or antimicrobial activity) [Peptide 1T-119] | S. gordonii; also recorded: S. mitis; also recorded: S. mutans; also recorded: S. oralis |
| 1T-121 (FAKETGFGIGGAQEGWWIIADIYGPNPF; Peptide with targeting and/or antimicrobial activity) [Peptide 1T-121] | S. gordonii; also recorded: S. mitis; also recorded: S. mutans; also recorded: S. oralis; also recorded: S. salivarious; also recorded: S. sanguinis |
| 1T-122 (GAIPDPVTHRVDWEEDHQTRPSR; Peptide with targeting and/or antimicrobial activity) [Peptide 1T-122] | S. mitis |
| 1T-123 (LVRRNAVAGRSDGLAGAEQLDLVRLQGVL; Peptide with targeting and/or antimicrobial activity) [Peptide 1T-123] | S. gordonii |
| 1T-124 (LFDERNKIA; Peptide with targeting and/or antimicrobial activity) [Peptide 1T-124] | S. mitis; also recorded: S. mutans; also recorded: S. oralis |
| 1T-125 (DAITGGNPPLSDTDGLRP; Peptide with targeting and/or antimicrobial activity) [Peptide 1T-125] | S. epidermidis; also recorded: S. gordonii; also recorded: S. mutans; also recorded: S. oralis |
| 1T-126 (QGLARPVLRRIPL; Peptide with targeting and/or antimicrobial activity) [Peptide 1T-126] | S. gordonii; also recorded: S. mitis; also recorded: S. mutans |
| 1T-139 (AVAGAAVGALLGNDARSTAVGAAIGGALGAGAGELTKNK; Peptide with targeting and/or antimicrobial activity) [Peptide 1T-139] | A. naeslundii; also recorded: S. gordonii; also recorded: S. mitis; also recorded: S. mutans; also recorded: S. oralis |
| 1T-141 (KKFIILLFILVQGLIFSATKTLSDIIAL; Peptide with targeting and/or antimicrobial activity) [Peptide 1T-141] | F. nucleatum; also recorded: P. gingivalis; also recorded: S. epidermidis; also recorded: S. gordonii; also recorded: S. mitis; also recorded: S. mutans; also recorded: S. oralis; also recorded: S. sanguinis |
| 1T-145 (VEAGKRNISLENIEKISKGLGISISELFKYIEEGEDKIG; Peptide with targeting and/or antimicrobial activity) [Peptide 1T-145] | S. mitis; also recorded: S. mutans; also recorded: S. oralis |
| 1T-154 (YFSFLEIVGMARR; Peptide with targeting and/or antimicrobial activity) [Peptide 1T-154] | P. gingivalis |
| 1T-159 (IFSLHHFALICSEMGTFAVSKRAKYKWEVL; Peptide with targeting and/or antimicrobial activity) [Peptide 1T-159] | P. gingivalis |
| 1T-170 (AYGKVFSMDIMLSENDKLIVLRISHHSAWH; Peptide with targeting and/or antimicrobial activity) [Peptide 1T-170] | P. gingivalis |
| 1T-177 (GTNVPTQILGYSREERFDYEPAPEQR; Peptide with targeting and/or antimicrobial activity) [Peptide 1T-177] | P. gingivalis; also recorded: S. gordonii; also recorded: S. mitis; also recorded: S. mutans; also recorded: S. oralis; also recorded: S. salivarious; also recorded: S. sanguinis |
| 1T-188 (HRKDVYKK; Peptide with targeting and/or antimicrobial activity) [Peptide 1T-188] | S. sanguinis |
| 1T-192 (ILVLLALQVELDSKFQY; Peptide with targeting and/or antimicrobial activity) [Peptide 1T-192] | S. sanguinis |
